Data on one compound can be found in patent publication US20170105999A1, “METHOD FOR TREATING DRUG RESISTANT CANCER” (NATIONAL YANG MING UNIVERSITY, priority 2014, published 2017).

One assay relates to A549 cells. The assay can be described thus: Senescence, β-galactosidase (SA-β-Gal) activity. To be noted: A549, 24 hours; 1 μM prochlorperazine, 50 μM resveratrol as positive control. In kind it is cell-based. An excerpt:
EMT also plays a critical role in the regulation of cancer sternness. EMT is characterized by enhanced cell migration and invasion.

The next assay relates to H226. The assay can be described thus: Tumor spheroid (sphere formation) assay. In kind it is cell-based. To be noted: H226, squamous cell carcinoma.
The subject of assay [1] is signet ring cell carcinoma. The assay can be described thus: Case study, signet ring cell carcinoma patient. In kind it is in vivo, human. To be noted: person; prochlorperazine with several kinds of chemotherapy; last followed-up CT.
The subject of assay [2] is NCI-H441 cells expressing firefly luciferase. The assay can be described thus: NCI-H441 firefly luciferase tail vein tumor model, drug combination test. In kind it is in vivo, mice. To be noted: prochlorperazine 1 mg/kg + pemetrexed 1 mg/kg; p<0.05. On the procedure:
In the first drug combination test, NCI-H441 cells expressing firefly luciferase (6×10^5 cells/injection) were injected into NOD/SCID mice (4-6 week of age) via the lateral tail vein for tumor establishment. […] Tumor burden from different groups were recorded by caliper. The change in tumor size was expressed as in fold change and plotted over time. Subsequently, we performed another set of drug combination test. […] For lung adenocarcinoma, the standard drug combination is pemetrexed and cisplatin whereas are used gemcitabine and cisplatin for lung squamous carcinoma. […] CL97 cancer cells (1.5×10^6 cells per injection) were injected subcutaneously into NOD/SCID mice to establish in viva tumor model.
In the drug combination test ([…]), NCI-H441 cells expressing firefly luciferase ([…] cells/injection) were injected into NOD/SCID mice (4-6 week of age) via the lateral tail vein for tumor establishment.

Assay [3] deals with GBM8401. The assay can be described thus: Side population analysis by flow cytometry (Hoechst 33342). To be noted: GBM8401, brain cancer. The assay is classed as cell-based. On the procedure:
(§1) Single-cell suspensions of cells were detached from dishes with Trypsin-EDTA (Invitrogen) and suspended at 1×10^6 cells/mL in Hank's balanced salt solution ([…]) supplemented with 3% fetal calf serum and 10 mM Hepes. These cells were then incubated at 37° C. for 90 minutes with 20 μg/mL Hoechst 33342 (Sigma Chemical, St. Louis, Mo.). The ABC transporter inhibitor verapamil (Sigma) was added at a final concentration of 50 μM to confirm the gating area on flow cytometry. After 90 minutes incubation with indicated drugs, the cells were centrifuged immediately for 5 minutes at 300 g and 4° C. and resuspended in ice-cold HBSS, The cells were kept on ice to inhibit efflux of the Hoechst dye, and 1 μg/mL propidium iodide (PI, BD) were added to discriminate dead cells. Finally, these cells were filtered through a 40 μm cell strainer (BD) to obtain single-suspension cells. Cell dual-wavelength analysis and purification were performed on a dual-laser FACS Vantage SE (BD). Hoechst 33342 can be excited at 355 nm UV light and emitted blue fluorescence with a 450/20 band-pass (BP) filter and red fluorescence with a 675 nm edge filter long-pass (EFLP). A 610 nm dichroic mirror short-pass (DMSP) was used to separate the emission wavelengths. PI-positive (dead) cells were excluded from the analysis.
Background: A flow cytometer gives signals particle by particle.

In a further assay the test system is U87MG. The description is as above. In kind it is cell-based. To be noted: brain cancer. On the procedure: as §1
The test system of assay [4] is CL152. The assay can be described thus: Tumor spheroid (sphere formation) assay.
Method: (§4) In brief, single cells were plated in 6-well ultralow attachment plates (Coming Inc.) at a density of 2,000 cells/mL in tumor spheroid culture medium, DMEM/F12 supplemented with 1% N2 Supplement (Invitrogen), 10 ng/mL basic fibroblast growth factor (Sigma-Aldrich), 10 ng/mL epidermal growth factor (Invitrogen) with 1% penicillin/streptomycin (Invitrogen) at 37° C. in a humidified atmosphere of 95% air and 5% CO2. Cells were cultured twice per week. When passaged, tumor spheres were harvested. Spheroids were dissociated with TrypLE™ (Invitrogen). Spheroids cell counting using the Trypan Blue Exclusion method.
Assay [5] relates to GBM8401. The assay can be described thus: Clonogenic assay. To be noted: GBM8401, brain cancer. In kind it is cell-based. On the procedure: (§2) Tested cells were seeded respectively in 6 well plates with 10^4 cells per well for 14 days. […] After the treatments, cells were washed with PBS, and the colonies were fixed with fix solution (methanol: acetic acid=3:1) and stained with 0.5% crystal violet in methanol. After removing the crystal violet carefully and rinse with tap water, the colonies were counted manually.

Assay [6] has as its system CL97. The assay can be described thus: Clonogenic assay. The assay is classed as cell-based. To be noted: CL97, adenocarcinoma. On the procedure:
as §2

The subject of assay [7] is CL152. The assay can be described thus: Clonogenic assay. To be noted: CL152, squamous cell carcinoma. In kind it is cell-based. On the procedure: as §2
The subject of a further assay is A549. The assay can be described thus: Clonogenic assay. In kind it is cell-based. To be noted: A549, adenocarcinoma. On the procedure: as §2
Assay [8] relates to H1299. The assay can be described thus: Clonogenic assay. The assay is classed as cell-based. To be noted: H1299, large cell carcinoma. On the procedure:
as §2

A further assay relates to HT29. The assay can be described thus: Tumor spheroid (sphere formation) assay. The assay is classed as cell-based. To be noted: HT29, colorectal adenocarcinoma.
A further assay relates to CL141. The assay can be described thus: Clonogenic assay. To be noted: CL141, adenocarcinoma. In kind it is cell-based. An excerpt:
[…] […] After the treatments, cells were washed with PBS, and the colonies were fixed with fix solution (methanol: acetic acid=3:1) and stained with 0.5% crystal violet in methanol. After removing the crystal violet carefully and rinse with tap water, the colonies were counted manually.

Assay [9] concerns H1299. The assay can be described thus: Tumor spheroid (sphere formation) assay.
Method: as §4
The subject of assay [10] is lung adenocarcinoma with EGFR-L858R mutation. The assay can be described thus: Case study, lung adenocarcinoma patient. In kind it is in vivo, human. To be noted: person; prochlorperazine along with pemetrexed; last followed-up CT.
Assay [11] relates to CL97. The assay can be described thus: Side population analysis by flow cytometry (Hoechst 33342). In kind it is cell-based. To be noted: CL97, adenocarcinoma. On the procedure:
as §1, with “The ABC transporter inhibitor verapamil (Sigma) was added at a final concentration of 50 μM to confirm the gating area on flow cytometry.” left out
(§3) A549, A549-ON, CL97, CL141, HCC827, and H441 were lung adenocarcinoma cell lines. CL152, H2170, and H226 were squamous cell carcinoma cell lines. Cell viability was determined by SRB assay. […] To determine whether side population (SP) cells, which represent a cell population with CSC characteristics, exist in NSCLC cell lines, we stained the cells with the fluorescent dye, Hoechst 33342, and analyzed the cells with flow cytometry.

For assay [12], the system named is CL152. The assay is described as above. The assay is classed as cell-based. To be noted: CL152, squamous cell carcinoma. On the procedure:
as §1, with “The ABC transporter inhibitor verapamil (Sigma) was added at a final concentration of 50 μM to confirm the gating area on flow cytometry.” left out
as §3

SMILES strings stand for the structures.

For `CN1CCN(CCCN2c3ccccc3Sc3ccc(Cl)cc32)CC1` [prochlorperazine], the “β-galactosidase activity (senescence)” value in the assay on A549 cells was “increased β-galactosidase activity”. The Sphere formation was in the range of 0 to 5 µM in the assay with H226; 0 to 5 µM with CL152 [4] (CL152, squamous cell carcinoma); 0 to 2.5 µM with HT29; 0 to 5 µM in the assay on H1299 [9] (H1299, large cell carcinoma). Besides, the “tumor on CT” value in [1] is listed as “tumor was stable”. Also, the “tumor inhibitory effect, combination with pemetrexed” value in assay [2] was “significantly better tumor inhibitory effect than any other groups”. Further, the Side population in the assay with GBM8401 [3] was more than 10 µM; in the assay with U87MG, more than 10 µM; in the assay on CL97 [11], less than 5 µM; in the assay with CL152 [12], less than 5 µM. Also, the “combination effect with gemcitabine, sphere-formation assay” value with CL152 [4] (CL152 spheres, in combination with gemcitabine) is listed as “synergistic effect”. In addition, the Clonogenic assay with GBM8401 [5] lay in the range of 3.33 to 10 µM; in the assay on CL97 [6] it was 5 to 10 µM; with CL152 [7] it was 5 to 10 µM; with A549, 5 to 10 µM; in the assay on H1299 [8], 5 to 10 µM; with CL141, 5 to 10 µM. Moreover, the sphere-forming ability result with H1299 [9] (H1299) was “suppressed the sphere-forming ability”. In the assay on H1299 [9] (H1299, combination with cisplatin vs prochlorperazine or cisplatin alone), the “spheres number, combination with cisplatin” value is on record as “lower spheres number”. For the same compound, in assay [10], the “tumor and pleural effusion on CT” value is recorded as “reduced significantly”.
